The series can be described thus: Flavor release from chewing gum, mechanical mastication device with artificial saliva. The format is physicochemical. Particulars: chewing gum with 2% flavor system. Here is the method: To test if adequate flavor is released from chewing gum, the chewing gums made in Example 5 were tested using a mechanical instrument to simulate human mastication of chewing gum, which can be found in Kleber et al. A mastication device designed for the evaluation of chewing gum is set forth in Journal of Dental Research, 1981, 109-114, which is incorporated herein in its entirety. Artificial saliva (15 ml) was placed in the reservoir, and the thermostatically controlled heating element was turned on to maintain the saliva and gum at body temperature for proper chewing consistency. One stick of test chewing gum (approximately 3 grams with 2% flavor system added) was placed in the warmed chamber and the artificial saliva was exposed to the chewing gum for 1 minute under chewing simulation conditions. All the artificial saliva (15 ml) was removed as quickly as possible with a pipette, delivered immediately into a glass bottle and sealed. The saliva was replaced with a fresh 15 ml aliquot, the chewing conditions restarted and the gum samples were treated for another minute. […] Two markers, Marker 1, thymol, and Marker 2, menthol, were selected to monitor flavor release based on quantity and antimicrobial efficiency. […] It was estimated that enough flavor was released during the first 15-20 minutes to have antimicrobial activity based on the quantity released and the MIC results.

These results are taken from US11211249B2, “Herbal extracts and flavor systems for oral products and methods of making the same” (Sensient Flavors LLC, priority 2008, dated 2021).

With `Cc1ccc(C(C)C)c(O)c1` [Marker 1, thymol], the “release course over time of chewing” value is “released constantly for the first 10 minutes and afterward decreases”.
